# According to a compilation of properties of binary mixtures (doi:10.1021/acs.jpcc.9b06000):
# Assay: xn = mol fraction of the nth substance listed
# Conditions: 101 kPa
structure (smiles),measurement,setting,value
FC1CC(F)(F)C(F)(F)C1(F)F (centres undefined) + CCCC[N+]1(C)CCCC1.FC(F)(F)C(F)(F)[P-](F)(F)(F)(C(F)(F)C(F)(F)F)C(F)(F)C(F)(F)F,electrical conductivity,"298.1 K, x2 = 0.035",0.402 S/m
same,electrical conductivity,"298.1 K, x2 = 0.077",0.514 S/m
same,electrical conductivity,"298.1 K, x2 = 0.122",0.605 S/m
same,viscosity,"298.1 K, x2 = 0.127",3.91 mPa·s
same,electrical conductivity,"298.1 K, x2 = 0.18",0.678 S/m
same,electrical conductivity,"298.1 K, x2 = 0.248",0.569 S/m
same,electrical conductivity,"298.1 K, x2 = 0.334",0.489 S/m
same,electrical conductivity,"298.1 K, x2 = 0.437",0.351 S/m
same,viscosity,"298.1 K, x2 = 0.656",54.8 mPa·s
same,viscosity,"298.1 K, x2 = 0.841",112.6 mPa·s
same,electrical conductivity,"303 K, x2 = 0.035",0.428 S/m
same,electrical conductivity,"303 K, x2 = 0.077",0.554 S/m
same,viscosity,"303 K, x2 = 0.08",2.72 mPa·s
same,electrical conductivity,"303 K, x2 = 0.122",0.656 S/m
same,electrical conductivity,"303 K, x2 = 0.248",0.638 S/m
same,electrical conductivity,"303 K, x2 = 0.331",0.572 S/m
same,viscosity,"303 K, x2 = 0.338",11.23 mPa·s
same,electrical conductivity,"303 K, x2 = 0.653",0.33 S/m
same,viscosity,"303 K, x2 = 0.659",45 mPa·s
same,electrical conductivity,"308.1 K, x2 = 0.032",0.453 S/m
same,viscosity,"308.1 K, x2 = 0.08",2.37 mPa·s
same,electrical conductivity,"308.1 K, x2 = 0.125",0.717 S/m
same,electrical conductivity,"308.1 K, x2 = 0.183",0.812 S/m
same,electrical conductivity,"308.1 K, x2 = 0.248",0.703 S/m
same,electrical conductivity,"308.1 K, x2 = 0.331",0.641 S/m
same,electrical conductivity,"308.1 K, x2 = 0.437",0.478 S/m
same,viscosity,"308.1 K, x2 = 0.437",15.23 mPa·s
same,electrical conductivity,"308.1 K, x2 = 0.656",0.38 S/m
same,viscosity,"308.1 K, x2 = 0.656",37 mPa·s
same,electrical conductivity,"308.1 K, x2 = 0.839",0.254 S/m
same,viscosity,"308.1 K, x2 = 0.844",68.1 mPa·s
same,viscosity,"313 K, x2 = 0",1.28 mPa·s
same,electrical conductivity,"313 K, x2 = 0.035",0.482 S/m
same,electrical conductivity,"313 K, x2 = 0.077",0.638 S/m
same,electrical conductivity,"313 K, x2 = 0.122",0.772 S/m
same,electrical conductivity,"313 K, x2 = 0.251",0.764 S/m
same,electrical conductivity,"313 K, x2 = 0.334",0.714 S/m
same,viscosity,"313 K, x2 = 0.338",8.03 mPa·s
same,electrical conductivity,"313 K, x2 = 0.437",0.54 S/m
same,electrical conductivity,"313 K, x2 = 0.653",0.449 S/m
same,viscosity,"313 K, x2 = 0.655",28.8 mPa·s
same,electrical conductivity,"313 K, x2 = 0.839",0.297 S/m
same,viscosity,"313 K, x2 = 0.841",54.5 mPa·s
same,viscosity,"318.1 K, x2 = 0.08",1.95 mPa·s
same,electrical conductivity,"318.1 K, x2 = 0.125",0.83 S/m
same,electrical conductivity,"318.1 K, x2 = 0.183",0.949 S/m
same,electrical conductivity,"318.1 K, x2 = 0.248",0.826 S/m
same,electrical conductivity,"318.1 K, x2 = 0.338",0.786 S/m
same,electrical conductivity,"318.1 K, x2 = 0.431",0.609 S/m
same,electrical conductivity,"318.1 K, x2 = 0.653",0.511 S/m
same,viscosity,"318.1 K, x2 = 0.84",44.8 mPa·s
same,viscosity,"323 K, x2 = 0",1.08 mPa·s
same,electrical conductivity,"323 K, x2 = 0.039",0.543 S/m
same,electrical conductivity,"323 K, x2 = 0.077",0.75 S/m
same,electrical conductivity,"323 K, x2 = 0.122",0.906 S/m
same,electrical conductivity,"323 K, x2 = 0.183",1.04 S/m
same,viscosity,"323 K, x2 = 0.183",3.12 mPa·s
same,electrical conductivity,"323 K, x2 = 0.248",0.899 S/m
same,electrical conductivity,"323 K, x2 = 0.331",0.851 S/m
same,viscosity,"323 K, x2 = 0.335",6.61 mPa·s
same,electrical conductivity,"323 K, x2 = 0.434",0.703 S/m
same,electrical conductivity,"323 K, x2 = 0.653",0.591 S/m
same,electrical conductivity,"323 K, x2 = 0.839",0.417 S/m
same,viscosity,"323 K, x2 = 0.84",36.8 mPa·s
